Data on 40 sequences can be found in the OligoGym collection.

Values joined by “and” are separate entries in the source; they are usually repeats but may differ in a detail not shown here. Equal entries are not always repeated. After the bases stand the sugars from the 5' end (letter, count) and the backbone: PS all phosphorothioate, else s phosphorothioate and o phosphodiester by linkage. Methylation of C is not given here. e = 2'-O-(2-methoxyethyl) (MOE); k = constrained ethyl (cEt); d = 2'-deoxy (DNA)

This data set addresses SOD1. The conditions noted are these: ASO.

For “GACCTGCACTGGTACAG (sugars e3 k2 d7 k2 e3, PS)”, the target mRNA inhibition (HepG2, 3 µM) is 7%.

Sequence “GACTACGACGCAAACCAGCA (sugars e5 d10 e5, PS)” gave a target mRNA inhibition (HepG2, 4 µM) of 40%.

On to “GACTACTTTATAGGCCAGAC (sugars e5 d10 e5, PS)”, for which the target mRNA inhibition (HepG2, 4 µM) was 64% and 74%; the target mRNA inhibition (HepG2, 12 µM) was found to be 80%.

Sequence “GAGGACTGCAACGGAAACCC (sugars e5 d10 e5, PS)” returned a target mRNA inhibition (HepG2, 4 µM) of 24%.

In turn, “GATTACAGTGTTTAATG (sugars e2 k2 d8 k2 e3, PS)” showed a target mRNA inhibition (HepG2, 5 µM) of 54%.

For “GATTTAAGTCTGGCAAA (sugars e2 k2 d9 k2 e2, PS)”, where the note is “HepG2, 5 µM”, the target mRNA inhibition turned out to be 35%.

“GCAATGGTCTCCTGAGAGTG (sugars e5 d10 e5, PS)” yielded a target mRNA inhibition (HepG2, 5 µM) of 57%.

Consider “GCAGGATAACAGATGAG (sugars e3 k2 d7 k2 e3, PS)”, for which the target mRNA inhibition was 39% (HepG2, 0.1875 µM); 60% (HepG2, 0.75 µM); 58% and 80% (HepG2, 3 µM); 90% (HepG2, 12 µM).

As to “GCCACGCCGAGGTCCTGGTT (sugars e5 d10 e5, PS)”, the target mRNA inhibition (HepG2, 4 µM) worked out at 38%.

On to “GCCCAAGTCTCCAACATGCC (sugars e5 d10 e5, PS)”, for which, for the setting “HepG2, 5 µM”, the target mRNA inhibition is 61% and 53%.

For the sequence “GCCTCAGACTACATCCA (sugars e2 k2 d8 k2 e3, PS)”, the target mRNA inhibition (HepG2, 4 µM) worked out at 69%.

As for “GCCTCATAATAAGTGCC (sugars e2 k2 d9 k2 e2, PS)”, the target mRNA inhibition (HepG2, 5 µM) was found to be 33%.

As to “GCCTCGCCCACTCTGGCCCC (sugars e5 d10 e5, PS)”, under “HepG2, 4 µM”, the target mRNA inhibition was 37%.

In the case of “GCTAGCAGGATAACAGA (sugars e2 k2 d9 k2 e2, PS)”, the target mRNA inhibition (HepG2, 4 µM) worked out at 43%.

As to “GCTAGCAGGATAACAGA (sugars e3 k2 d7 k2 e3, PS)”, under “HepG2, 3 µM”, the target mRNA inhibition worked out at 10%.

In turn, “GCTTCCCCACACCTTCAC (sugars e5 d8 e5, linkages s1 o3 s9 o2 s2)” came in with a target mRNA inhibition (A431, 0.12 µM) of 0%; a target mRNA inhibition (A431, 0.6 µM) of 1%; a target mRNA inhibition (A431, 3 µM) of 0%; a target mRNA inhibition (A431, 15 µM) of 5%; a target mRNA inhibition (HepG2, 0.222 µM) of 8%; a target mRNA inhibition (HepG2, 0.667 µM) of 29%. Further, the target mRNA inhibition was 46% (HepG2, 2 µM) and 76% (HepG2, 6 µM).

Sequence “GGAATCCATGCAGGCCT (sugars e3 k2 d7 k2 e3, PS)” registered a target mRNA inhibition (HepG2, 3 µM) of 7%.

In turn, “GGACCTGCACTGGTACA (sugars e3 k2 d7 k2 e3, PS)” displayed a target mRNA inhibition (HepG2, 3 µM) of 7%.

Consider “GGATACATTTCTACAG (sugars kekeddddddddekek, linkages s1 o3 s8 o1 s2)”, for which the target mRNA inhibition (A431, 0.12 µM) came to 0%; the target mRNA inhibition (A431, 0.6 µM) was determined as 0%; the target mRNA inhibition (A431, 3 µM) turned out to be 0%; the target mRNA inhibition (A431, 15 µM) was found to be 14%.

For “GGATACATTTCTACAGC (sugars e2 k2 d9 k2 e2, PS)”, the target mRNA inhibition runs as follows: (HepG2, 0.1875 µM) 44%; (HepG2, 0.75 µM) 67%; (HepG2, 3 µM) 89%; (HepG2, 4 µM) 84%; (HepG2, 12 µM) 94%.

As to “GGATACATTTCTACAGC (sugars e4 k1 d8 k1 e3, linkages s1 o3 s9 o1 s2)”, the target mRNA inhibition came to 8% (A431, 0.062 µM); 7% (A431, 0.185 µM); 30% (A431, 0.556 µM); 33% (A431, 1.667 µM); 66% (A431, 5 µM); 59% (A431, 15 µM). Further, the target mRNA inhibition (SH-SY5Y, 0.062 µM) was 9%; the target mRNA inhibition (SH-SY5Y, 0.185 µM) is 0%; the target mRNA inhibition (SH-SY5Y, 0.556 µM) is 12%; the target mRNA inhibition (SH-SY5Y, 1.667 µM) stood at 33%; the target mRNA inhibition (SH-SY5Y, 5 µM) stood at 65%; the target mRNA inhibition (SH-SY5Y, 15 µM) turned out to be 76%.

“GGATACATTTCTACAGC (sugars e5 d8 k2 e2, linkages s1 o3 s9 o1 s2)” had a target mRNA inhibition (A431, 0.062 µM) of 2%; a target mRNA inhibition (A431, 0.185 µM) of 4%; a target mRNA inhibition (A431, 0.556 µM) of 15%; a target mRNA inhibition (A431, 1.667 µM) of 19%; a target mRNA inhibition (A431, 5 µM) of 37%; a target mRNA inhibition (A431, 15 µM) of 44%. Further, the target mRNA inhibition was 0% (SH-SY5Y, 0.062 µM); 0% (SH-SY5Y, 0.185 µM); 12% (SH-SY5Y, 0.556 µM); 30% (SH-SY5Y, 1.667 µM); 56% (SH-SY5Y, 5 µM); 68% (SH-SY5Y, 15 µM).

As to “GGATACATTTCTACAGCT (sugars e5 d8 e5, linkages s1 o3 s9 o2 s2)”, the target mRNA inhibition runs as follows: (A431, 0.12 µM) 0%; (A431, 0.6 µM) 25%; (A431, 3 µM) 29%; (A431, 15 µM) 50%; (HepG2, 0.222 µM) 38%; (HepG2, 0.667 µM) 62%. Further, the target mRNA inhibition came to 82% (HepG2, 2 µM) and 94% (HepG2, 6 µM).

Take “GGCAAAATACAGGTCAT (sugars e3 k2 d7 k2 e3, PS)”: the target mRNA inhibition (HepG2, 3 µM) is 39%.

As for “GGCCAATGATGCAATGGTCT (sugars e5 d10 e5, PS)”, the target mRNA inhibition (HepG2, 5 µM) was 9%.

For “GGCCACACCATCTTTGTCAG (sugars e5 d10 e5, PS)”, the target mRNA inhibition (HepG2, 5 µM) is 23% and 5%.

“GGCGATCCCAATTACAC (sugars e2 k2 d9 k2 e2, PS)” registered a target mRNA inhibition (HepG2, 4 µM) of 66%.

“GGGCCTCAGACTACATC (sugars e2 k2 d9 k2 e2, PS)” had a target mRNA inhibition (HepG2, 4 µM) of 58%.

“GGGTTTTTATTCACAGG (sugars e3 k2 d7 k2 e3, PS)”: the target mRNA inhibition (HepG2, 3 µM) stood at 17%.

The sequence “GGTCATTGAAACAGACA (sugars e3 k2 d7 k2 e3, PS)” yielded a target mRNA inhibition (HepG2, 3 µM) of 11%.

Where the note is “HepG2, 3 µM”, “GGTCCATTACTTTCCTT (sugars e3 k2 d7 k2 e3, PS)” came in with a target mRNA inhibition of 18%.

Regarding “GGTTTTTATTCACAGGC (sugars e2 k2 d9 k2 e2, PS)”, the target mRNA inhibition (HepG2, 4 µM) is 45%; the target mRNA inhibition (HepG2, 5 µM) worked out at 57%; the target mRNA inhibition (HepG2, 12 µM) turned out to be 51%.

Take “GGTTTTTATTCACAGGC (sugars e3 k2 d7 k2 e3, PS)”: the target mRNA inhibition (HepG2, 3 µM) stood at 22%.

“GTCATTGAAACAGACAT (sugars e3 k2 d7 k2 e3, PS)”: under “HepG2, 3 µM”, the target mRNA inhibition came to 23%.

Take “GTCCATTACTTTCCTTC (sugars e3 k2 d7 k2 e3, PS)”: the target mRNA inhibition (HepG2, 3 µM) stood at 33%.

Sequence “GTCCTTTAATGCTTCCCCAC (sugars e5 d10 e5, PS)” returned a target mRNA inhibition (HepG2, 4 µM) of 9%.

“GTCGCCCTTCAGCACGC (sugars e2 k2 d9 k2 e2, PS)” gave a target mRNA inhibition (HepG2, 4 µM) of 72%.

In the case of “GTCGCCCTTCAGCACGCA (sugars e5 d8 e5, linkages s1 o3 s9 o2 s2)”, the target mRNA inhibition (A431, 0.062 µM) came out at 10%; the target mRNA inhibition (A431, 0.185 µM) was 11%; the target mRNA inhibition (A431, 0.556 µM) stood at 11%; the target mRNA inhibition (A431, 1.667 µM) came out at 3%; the target mRNA inhibition (A431, 5 µM) amounted to 18%; the target mRNA inhibition (A431, 15 µM) worked out at 4%. This sequence came in with a target mRNA inhibition (SH-SY5Y, 0.062 µM) of 13%; a target mRNA inhibition (SH-SY5Y, 0.185 µM) of 4%; a target mRNA inhibition (SH-SY5Y, 0.556 µM) of 5%; a target mRNA inhibition (SH-SY5Y, 1.667 µM) of 40%; a target mRNA inhibition (SH-SY5Y, 5 µM) of 52%; a target mRNA inhibition (SH-SY5Y, 15 µM) of 77%.

In turn, “GTCTCCGCGACTACTTTATA (sugars e5 d10 e5, PS)” gave a target mRNA inhibition (HepG2, 4 µM) of 22%.

On to “GTCTCCTGAGAGTGAGATCA (sugars e5 d10 e5, PS)”, for which the target mRNA inhibition (HepG2, 5 µM) stood at 23%.
